Data taken from patent US9840501B2, “Morpholin-pyridine derivatives” (Hoffmann-La Roche Inc., priority 2014, dated 2017).

What was measured:
mouse TAAR1 = mouse TAAR1 (Mus musculus (Mouse), UniProt Q923Y8); test: Radioligand binding assay on mouse TAAR1; settings: mouse TAAR1, membranes of stably transfected HEK-293 cells; first value of the pair; read-out: Ki (μM) mouse/rat: mouse
Protocol: (§1) For the construction of expression plasmids the coding sequences of human, rat and mouse TAAR 1 were amplified from genomic DNA essentially as described by Lindemann et al.. The Expand High Fidelity PCR System (Roche Diagnostics) was used with 1.5 mM Mg^2+ and purified PCR products were cloned into pCR2.1-TOPO cloning vector (Invitrogen) following the instructions of the manufacturer. PCR products were subcloned into the pIRESneo2 vector (BD Clontech, Palo Alto, Calif.), and expression vectors were sequence verified before introduction in cell lines.
(§2) For the generation of stably transfected cell lines HEK293 cells were transfected with the pIRESneo2 expression plasmids containing the TAAR coding sequences (described above) with Lipofectamine 2000 (Invitrogen) according to the instructions of the manufacturer, and 24 hrs post transfection the culture medium was supplemented with 1 mg/ml G418 (Sigma, Buchs, Switzerland). After a culture period of about 10 d clones were isolated, expanded and tested for responsiveness to trace amines (all compounds purchased from Sigma) with the cAMP Biotrak Enzyme immunoassay (EIA) System (Amersham) following the non-acetylation EIA procedure provided by the manufacturer.
Radioligand Binding Assay on Mouse TAAR1
(§3) Membrane Preparation and Radioligand Binding.
(§4) Cells were released from culture flasks using trypsin/EDTA, harvested, washed twice with ice-cold PBS (without Ca^2+ and Mg^2+), pelleted at 1,000 rpm for 5 min at 4° C., frozen and stored at −80° C. Frozen pellets were suspended in 20 ml HEPES-NaOH (20 mM, pH 7.4) containing 10 mM EDTA and homogenized with a Polytron (PT 6000, Kinematica) at 14′000 rpm for 20 s. The homogenate was centrifuged at 48,000×g for 30 min at 4° C. Subsequently, the supernatant was removed and discarded, and the pellet resuspended in 20 ml HEPES-NaOH (20 mM, pH 7.4) containing 0.1 mM EDTA using the Polytron (20 s at 14′000 rpm). This procedure was repeated and the final pellet resuspended in HEPES-NaOH containing 0.1 mM EDTA and homogenized using the Polytron. Typically, aliquots of 2 ml membrane portions were stored at −80° C. With each new membrane batch the dissociation constant (Kd) was determined via a saturation curve. […] Nonspecific binding was defined as the amount of ^3[H]—(S)-4-[(ethyl-phenyl-amino)-methyl]-4,5-dihydro-oxazol-2-ylamine bound in the presence of 10 μM unlabeled ligand. All compounds were tested at a broad range of concentrations (10 pM to 10 μM) in duplicates. […] The 96 deep well plates were incubated for 1 hr at 4° C. Incubations were terminated by rapid filtration through Unifilter-96 plates (Packard Instrument Company) and glass filters GF/C (Perkin Elmer) presoaked for 1 hr in polyethylenimine (0.3%) and washed 3 times with 1 ml of cold binding buffer. After addition of 45 μl of Microscint 40 (PerkinElmer) the Unifilter-96 plate was sealed and after 1 hr the radioactivity counted using a TopCount Microplate Scintillation Counter (Packard Instrument Company).

rat TAAR1 = rat TAAR1 (Rattus norvegicus (Rat), UniProt Q923Y9); test: Radioligand binding assay on rat TAAR1; settings: rat TAAR1, membranes of stably transfected HEK-293 cells; second value of the pair; read-out: Ki (μM) mouse/rat: rat
rat TAAR1, sequence (Q923Y9 whole entry): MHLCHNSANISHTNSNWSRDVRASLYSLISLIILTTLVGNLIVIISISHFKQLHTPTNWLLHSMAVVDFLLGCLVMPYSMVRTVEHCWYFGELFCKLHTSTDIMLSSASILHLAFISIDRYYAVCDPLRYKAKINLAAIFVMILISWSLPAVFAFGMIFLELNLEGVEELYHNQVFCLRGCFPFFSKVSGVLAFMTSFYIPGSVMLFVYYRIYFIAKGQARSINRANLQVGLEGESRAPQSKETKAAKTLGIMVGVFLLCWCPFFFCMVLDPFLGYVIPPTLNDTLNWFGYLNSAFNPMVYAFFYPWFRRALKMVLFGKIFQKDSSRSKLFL
Protocol: as §1, §2
Radioligand Binding Assay on Rat TAAR1
as §3
as §4, with “1′000” for “1,000”, “48′000×g” for “48,000×g”

mouse TAAR1, sequence (Q923Y8 whole entry): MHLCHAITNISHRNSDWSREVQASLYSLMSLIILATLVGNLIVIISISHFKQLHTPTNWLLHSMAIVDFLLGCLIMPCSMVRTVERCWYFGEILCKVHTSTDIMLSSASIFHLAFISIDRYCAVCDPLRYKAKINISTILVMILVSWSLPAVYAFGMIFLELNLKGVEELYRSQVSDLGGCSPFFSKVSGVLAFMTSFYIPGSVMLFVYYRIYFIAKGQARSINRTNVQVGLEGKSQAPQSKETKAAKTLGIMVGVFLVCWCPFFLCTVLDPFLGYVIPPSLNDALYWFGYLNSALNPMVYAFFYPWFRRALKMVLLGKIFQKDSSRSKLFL

Which Ki (mouse TAAR1) does the source give for `O=C(Nc1cnc(C2CNCCO2)nc1)Nc1cccc(Cl)c1` (racemic) [Example 73, (RS)-1-(3-Chlorophenyl)-3-(2-morpholin-2-ylpyrimidin-5-yl)urea] here?
The Ki was 0.0059 µM.

What about the Ki (rat TAAR1) of the same molecule?
The Ki was 1.96 µM.

For `Clc1ccc(Nc2cnc(C3CNCCO3)c(Cl)c2)nc1` (racemic) [Example 102, (RS)-5-Chloro-N-(5-chloro-2-pyridyl)-6-morpholin-2-yl-pyridin-3-amine], which Ki (mouse TAAR1) is on record?
Its Ki is 0.178 µM.

What about the Ki (rat TAAR1) of the same molecule?
Its Ki is 0.461 µM.

For `Cc1cc(Nc2ccc(C(F)(F)F)cn2)cnc1C1CNCCO1` (racemic) [Example 104, (RS)-5-Methyl-6-morpholin-2-yl-N-[5-(trifluoromethyl)-2-pyridyl]pyridin-3-amine], which Ki (mouse TAAR1) is on record?
Its Ki is 0.0837 µM.

And the Ki (rat TAAR1)?
Its Ki is 0.455 µM.

For `O=C(Nc1cnc(C2CNCCO2)c(Cl)c1)c1ccnc(C(F)(F)F)c1` (racemic) [Example 107, (RS)—N-(5-Chloro-6-morpholin-2-yl-3-pyridyl)-2-(trifluoromethyl)pyridine-4-carboxamide], which Ki (mouse TAAR1) is on record?
Its Ki is 0.143 µM.

And the Ki (rat TAAR1)?
Its Ki is 0.371 µM.

How did the Ki (mouse TAAR1) turn out when `O=C(Nc1cccc(Cl)c1)Nc1cnc(C2CNCCO2)c(Cl)c1` (racemic) [Example 109, (RS)-1-(5-Chloro-6-morpholin-2-yl-3-pyridyl)-3-(3-chlorophenyl)urea] was run?
Its Ki is 0.0543 µM.

What about the Ki (rat TAAR1) of the same molecule?
The Ki was 0.019 µM.

With `Fc1cc(Nc2ccc(C(F)(F)F)cn2)cnc1C1CNCCO1` (racemic) [Example 111, (RS)-5-Fluoro-6-morpholin-2-yl-N-[5-(trifluoromethyl)-2-pyridyl]pyridin-3-amine] as the molecule, how does the Ki (mouse TAAR1) read?
Its Ki is 0.0128 µM.

What about the Ki (rat TAAR1) of the same molecule?
The Ki was 0.176 µM.

What does the source list for `O=C(Nc1cccc(Cl)c1)Nc1cnc(C2CNCCO2)c(F)c1` (racemic) [Example 112, (RS)-1-(3-Chlorophenyl)-3-(5-fluoro-6-morpholin-2-yl-3-pyridyl)urea]?
Ki (mouse TAAR1): 0.0102 µM; Ki (rat TAAR1): 0.0286 µM

Which Ki (mouse TAAR1) does the source give for `O=C(Nc1cnc(C2CNCCO2)c(F)c1)c1ccnc(C(F)(F)F)c1` (racemic) [Example 113, (RS)—N-(5-Fluoro-6-morpholin-2-yl-3-pyridyl)-2-(trifluoromethyl)pyridine-4-carboxamide] here?
The Ki was 0.0557 µM.

What about the Ki (rat TAAR1) of the same molecule?
Its Ki is 1.31 µM.

For `CCCc1n[nH]c(C(=O)Nc2cnc(C3CNCCO3)c(F)c2)c1Cl` (racemic) [Example 114, (RS)-4-Chloro-N-(5-fluoro-6-morpholin-2-yl-3-pyridyl)-3-propyl-1H-pyrazole-5-carboxamide], which Ki (mouse TAAR1) is on record?
The Ki was 0.0048 µM.

And the Ki (rat TAAR1)?
The Ki was 0.0221 µM.

How did the Ki (mouse TAAR1) turn out when `Cc1cc(NC(=O)c2ccnc(C(F)(F)F)c2)cnc1C1CNCCO1` (racemic) [Example 117, (RS)—N-(5-Methyl-6-morpholin-2-yl-3-pyridyl)-2-(trifluoromethyl)pyridine-4-carboxamide] was run?
The Ki was 0.464 µM.

And the Ki (rat TAAR1)?
The Ki was 1.41 µM.

`CCCc1n[nH]c(C(=O)Nc2cnc(C3CNCCO3)c(C)c2)c1Cl` (racemic) [Example 118, (RS)-4-Chloro-N-(5-methyl-6-morpholin-2-yl-3-pyridyl)-3-propyl-1H-pyrazole-5-carboxamide] was tested. Which Ki (mouse TAAR1) did it give?
The Ki was 0.0468 µM.

What about the Ki (rat TAAR1) of the same molecule?
Its Ki is 0.597 µM.

Which results are given for `Cc1cc(NC(=O)Nc2cccc(Cl)c2)cnc1C1CNCCO1` (racemic) [Example 119, (RS)-1-(3-Chlorophenyl)-3-(5-methyl-6-morpholin-2-yl-3-pyridyl)urea]?
Ki (mouse TAAR1): 0.0533 µM; Ki (rat TAAR1): 0.243 µM

`Clc1ccc(Nc2ccc([C@@H]3CNCCO3)nc2)cc1` [Example 18, N-(4-Chlorophenyl)-6-[(2S)-morpholin-2-yl]pyridin-3-amine] was tested. Which Ki (mouse TAAR1) did it give?
The Ki was 0.0015 µM.

And the Ki (rat TAAR1)?
The Ki was 0.043 µM.

For `Clc1ccc(Nc2ccc([C@@H]3CNCCO3)nc2)nc1` [Example 20, N-(5-Chloro-2-pyridyl)-6-[(2S)-morpholin-2-yl]pyridin-3-amine], which Ki (mouse TAAR1) is on record?
Its Ki is 0.0019 µM.

And the Ki (rat TAAR1)?
Its Ki is 0.0751 µM.

For `Brc1ccc(Nc2ccc([C@@H]3CNCCO3)nc2)nc1` [Example 21, N-(5-Bromo-2-pyridyl)-6-[(2S)-morpholin-2-yl]pyridin-3-amine], which Ki (mouse TAAR1) is on record?
Its Ki is 0.002 µM.

What about the Ki (rat TAAR1) of the same molecule?
The Ki was 0.0324 µM.

Which Ki (mouse TAAR1) does the source give for `FC(F)(F)c1ccc(Nc2ccc([C@@H]3CNCCO3)nc2)cn1` [Example 22, 6-[(2S)-Morpholin-2-yl]-N-[6-(trifluoromethyl)-3-pyridyl]pyridin-3-amine] here?
Its Ki is 0.0126 µM.

And the Ki (rat TAAR1)?
Its Ki is 0.247 µM.
